In patent publication US10238658B2, “1-pyrazolyl-3-(4-((2-anilinopyrimidin-4-yl) oxy) napththalen-1-yl) ureas as p38 MAP kinase inhibitors” (Respivert Limited, priority 2011, dated 2019):

Legend:
Type in all cases: cell-based
[1] = tested on: TNFα; test: LPS-induced TNFα release in THP-1 cells; settings: Homo sapiens, THP-1, THP1 cells
Procedure: THP-1 cells, a human monocytic cell line, were stimulated with 3 μg/mL of LPS (from E. Coli; 0111:B4, Sigma) for 4 hr and the supernatant collected for determination of the TNFα concentration by sandwich ELISA (Duo-set, R&D systems). The inhibition of TNFα production was calculated at each concentration by comparison with vehicle control.

[2] = tested on: TNFα; test: LPS-induced TNFα release in d-U937 cells; settings: Homo sapiens, dU937, dU937 cells; relative to 10 μg/mL BIRB796; read-out: LPS Induced Release TNFα REC50 (dU937)
Procedure: (§1) U937 cells, a human monocytic cell line, were differentiated into macrophage-type cells by incubation with PMA (100 ng/mL) for 48 to 72 hr. Cells were pre-incubated with final concentrations of test compound for 2 hr and were then stimulated with LPS (0.1 μg/mL; from E. Coli: O111:B4, Sigma) for 4 hr. The supernatant was collected for determination of TNFα and IL-8 concentrations by sandwich ELISA (Duo-set, R&D systems). […] The relative 50% effective concentration (REC50) was determined from the resultant concentration-response curve. The inhibition of IL-8 production was calculated at each concentration of test compound by comparison with vehicle control.

[3] = tested on: IL-8; test: LPS-induced IL-8 release in d-U937 cells; settings: Homo sapiens, dU937, dU937 cells
Procedure: as §1

[4] = tested on: IL-8; test: Rhinovirus-induced IL-8 release in BEAS2B cells; settings: Homo sapiens, BEAS-2B, at 0.04 μg/mL; read-out: HRV IL-8 (BEAS2B) % inhibition
Procedure: Human rhinovirus RV16 was obtained from the American Type Culture Collection (Manassas, Va.). Viral stocks were generated by infecting Hela cells with HRV until 80% of the cells were cytopathic.
BEAS2B cells were infected with HRV at an MOI of 5 and incubated for 2 hr at 33° C. with gentle shaking for to promote absorption. The cells were then washed with PBS, fresh media added and the cells were incubated for a further 72 hr. The supernatant was collected for assay of IL-8 concentrations using a Duoset ELISA development kit (R&D systems, Minneapolis, Minn.). […]

[5] = tested on: HRV16; test: HRV16 induced CPE in MRC5 cells; settings: Human rhinovirus sp., HRV16, MRC5, at 0.04 μg/mL; read-out: HRV CPE (MRC5) % inhibition
Procedure: The supernatants were aspirated, and then fresh media added followed by incubation for 4 days. Where appropriate, cells were pre-incubated with compound or DMSO for 2 hr, and the compounds and DMSO added again after washout of the virus.
The percentage inhibition for each well was calculated. The IC50 value was calculated from the concentration-response curve generated by the serial dilutions of the test compounds.

[6] = tested on: PBMC; test: Cell mitosis assay; settings: Homo sapiens; for inhibition at 5 µg/mL: read-out: Mitosis Assay % inhibition in PBMC Cells at concn 5 μg/mL
Procedure: Peripheral blood mononucleocytes (PBMCs) from healthy subjects were separated from whole blood (Quintiles, London, UK) using a density gradient (Histopaque®-1077, Sigma-Aldrich, Poole, UK). The PBMCs (3 million cells per sample) were subsequently treated with 2% PHA (Sigma-Aldrich, Poole, UK) for 48 hr, followed by a 20 hr exposure to varying concentrations of test compounds. At 2 hr before collection, PBMCs were treated with demecolcine (0.1 μg/mL; Invitrogen, Paisley, UK,) to arrest cells in metaphase. To observe mitotic cells, PBMCs were permeabilised and fixed by adding Intraprep (50 μL; Beckman Coulter, France), and stained with anti-phospho-histone 3 ([…]; #9701; Cell Signalling, Danvers, Mass.) and propidium iodide (1 mg/mL; Sigma-Aldrich, Poole, UK,) as previously described (Muehlbauer P. A. and Schuler M. J., Mutation Research, 2003, 537:117-130). Fluorescence was observed using an ATTUNE flow cytometer (Invitrogen, Paisley, UK), gating for lymphocytes.

[7] = tested on: ICAM-1; test: Poly I:C-induced ICAM-1 expression in BEAS2B cells; settings: Homo sapiens, BEAS-2B, read-out: PolyIC/ICAM1 IC50 (BEAS2B)
Procedure: Poly I:C was used in these studies as a simple, RNA virus mimic. Poly I:C-Oligofectamine mixture (1 μg/mL Poly I:C, ±2% Oligofectamine, 25 μL; Invivogen Ltd., San Diego, Calif., and Invitrogen, Carlsbad, Calif., respectively) was transfected into BEAS2B cells (human bronchial epithelial cells, ATCC). Cells were pre-incubated with final concentrations of test compounds for 2 hr and the level of ICAM-1 expression on the cell surface was determined by cell-based ELISA. At a time point 18 hr after poly I:C transfection, cells were fixed with 4% formaldehyde in PBS (100 μL) and then endogenous peroxidase was quenched by the addition of washing buffer (100 μL, 0.05% Tween in PBS: PBS-Tween) containing 0.1% sodium azide and 1% hydrogen peroxide. Cells were washed with wash-buffer (3×200 μL). and after blocking the wells with 5% milk in PBS-Tween (100 μL) for 1 hr, the cells were incubated with anti-human ICAM-1 antibody (50 μL; Cell Signaling Technology, Danvers, Mass.) in 1% BSA PBS overnight at 4° C.
The cells were washed with PBS-Tween (3×200 μL) and incubated with the secondary antibody (100 μL; HRP-conjugated anti-rabbit IgG, Dako Ltd., Glostrup, Denmark). The cells were then incubated with of substrate (50 μL) for 2-20 min, followed by the addition of stop solution (50 μL, 1N H2SO4). The ICAM-1 signal was detected by reading […] the absorbance at 450 nm against a reference wavelength of 655 nm using a spectrophotometer. The cells were then washed with PBS-Tween (3×200 μL) and total cell numbers in each well were determined by reading absorbance at 595 nm after Crystal Violet staining (50 μL of a 2% solution in PBS) and elution by 1% SDS solution (100 μL) in distilled water. The measured OD 450-655 readings were corrected for cell number by dividing with the OD595 reading in each well. The inhibition of ICAM-1 expression was calculated at each concentration of test compound by comparison with vehicle control.

Question: Which results are given for `COc1ccc(Nc2nccc(Oc3ccc(NC(=O)Nc4cc(C(C)(C)C)nn4-c4ccc(C)cc4)c4ccccc34)n2)cc1OC` [Example 27, 1-(3-(tert-butyl)-1-(p-tolyl)-1H-pyrazol-5-yl)-3-(4-((2-((3,4-dimethoxyphenyl)amino)pyrimidin-4-yl)oxy)naphthalen-1-yl)urea]?
Answer: IC50 [1]: 0.5 nM; EC50 [2]: 0.54 nM; IC50 [3]: 2 nM; inhibition at 0.04 µg/mL [4]: 100%; inhibition at 0.04 µg/mL [5]: 51%; inhibition at 5 µg/mL [6]: 11.2%

Question: What does the source list for `Cc1ccc(-n2nc(C(C)(C)C)cc2NC(=O)Nc2ccc(Oc3ccnc(Nc4ccc(O)c(F)c4)n3)c3ccccc23)cc1` [Example 29, 1-(3-(tert-butyl)-1-(p-tolyl)-1H-pyrazol-5-yl)-3-(4-((2-((3-fluoro-4-hydroxyphenyl)amino)pyrimidin-4-yl)oxy)naphthalen-1-yl)urea]?
Answer: IC50 [1]: 1.6 nM; EC50 [2]: 11 nM; IC50 [3]: 2.3 nM; IC50 [7]: 2.8 nM; inhibition at 0.04 µg/mL [4]: 100%; inhibition at 0.04 µg/mL [5]: 13%

Question: With `COc1ccc(-n2nc(C(C)(C)C)cc2NC(=O)Nc2ccc(Oc3ccnc(Nc4ccccc4)n3)c3ccccc23)cc1` [Example 7, 1-(3-(tert-butyl)-1-(4-methoxyphenyl)-1H-pyrazol-5-yl)-3-(4-((2-(phenylamino)pyrimidin-4-yl)oxy)naphthalen-1-yl)urea] as the compound, how does the IC50 [1] read?
Answer: 10 nM

Question: What about the EC50 [2] of the same compound?
Answer: 1.7 nM

Question: What about the IC50 [3] of the same compound?
Answer: 2.1 nM

Question: And the inhibition at 0.04 µg/mL [4]?
Answer: 100%

Question: What about the inhibition at 0.04 µg/mL [5] of the same compound?
Answer: ≤ 0%

Question: What about the inhibition at 5 µg/mL [6] of the same compound?
Answer: 10.2%

Question: Which results are given for `COc1ccc(Nc2nccc(Oc3ccc(NC(=O)Nc4cc(C(C)(C)C)nn4-c4ccc(C)cc4)c4ccccc34)n2)c(OC)c1` [Example 8, 1-(3-(tert-butyl)-1-(p-tolyl)-1H-pyrazol-5-yl)-3-(4-((2-((2,4-dimethoxyphenyl)amino)pyrimidin-4-yl)oxy)naphthalen-1-yl)urea]?
Answer: IC50 [1]: 225 nM; EC50 [2]: 227 nM; IC50 [3]: 235 nM; inhibition at 0.04 µg/mL [4]: 100%; inhibition at 0.04 µg/mL [5]: 100%; inhibition at 1 µg/mL ([6]; read-out: Mitosis Assay % inhibition in PBMC Cells at concn 1 μg/mL): 15.6%

Question: Which results are given for `Cc1ccc(-n2nc(C(C)(C)C)cc2NC(=O)Nc2ccc(Oc3ccnc(Nc4ccc(O)cc4O)n3)c3ccccc23)cc1` [Example 32, 1-(3-(tert-butyl)-1-(p-tolyl)-1H-pyrazol-5-yl)-3-(4-((2-((2,4-dihydroxyphenyl)amino)pyrimidin-4-yl)oxy)naphthalen-1-yl)urea]?
Answer: IC50 [1]: 14 nM; EC50 [2]: 12 nM; IC50 [3]: 9.7 nM; inhibition at 0.04 µg/mL [4]: 100%; inhibition at 0.04 µg/mL [5]: 26%; inhibition at 5 µg/mL [6]: 33%

Question: With `Cc1ccc(-n2nc(C(C)(C)C)cc2NC(=O)Nc2ccc(Oc3ccnc(Nc4ccc(Cl)cc4C)n3)c3ccccc23)cc1` [Example 18, 1-(3-(tert-butyl)-1-(p-tolyl)-1H-pyrazol-5-yl)-3-(4-((2-((4-chloro-2-methylphenyl)amino)pyrimidin-4-yl)oxy)naphthalen-1-yl)urea] as the compound, how does the IC50 [1] read?
Answer: 157 nM

Question: What about the EC50 [2] of the same compound?
Answer: 13 nM

Question: What about the IC50 [3] of the same compound?
Answer: 15 nM

Question: What about the IC50 [7] of the same compound?
Answer: 28 nM

Question: And the inhibition at 0.04 µg/mL [4]?
Answer: 100%

Question: What about the inhibition at 0.04 µg/mL [5] of the same compound?
Answer: ≤ 0%

Question: How did the IC50 [1] turn out when `COc1ccc(-n2nc(C(C)(C)C)cc2NC(=O)Nc2ccc(Oc3ccnc(Nc4ccc(O)cc4)n3)c3ccccc23)cc1` [Example 33, 1-(3-(tert-butyl)-1-(4-methoxyphenyl)-1H-pyrazol-5-yl)-3-(4-((2-((4-hydroxyphenyl)amino)pyrimidin-4-yl)oxy)naphthalen-1-yl)urea] was run?
Answer: 0.5 nM

Question: And the EC50 [2]?
Answer: 7.4 nM

Question: What about the IC50 [3] of the same compound?
Answer: 6.3 nM

Question: What about the inhibition at 0.04 µg/mL [4] of the same compound?
Answer: 100%

Question: What about the inhibition at 0.04 µg/mL [5] of the same compound?
Answer: 44%

Question: And the inhibition at 5 µg/mL [6]?
Answer: 67.2%

Question: For `Cc1ccc(-n2nc(C(C)(C)C)cc2NC(=O)Nc2ccc(Oc3ccnc(Nc4ccc(C)c(O)c4)n3)c3ccccc23)cc1` [Example 26, 1-(3-(tert-butyl)-1-(p-tolyl)-1H-pyrazol-5-yl)-3-(4-((2-((3-hydroxy-4-methylphenyl)amino)pyrimidin-4-yl)oxy)naphthalen-1-yl)urea], which IC50 [1] is on record?
Answer: 1.9 nM

Question: What about the EC50 [2] of the same compound?
Answer: 4.1 nM

Question: What about the IC50 [3] of the same compound?
Answer: 6.6 nM

Question: And the IC50 [7]?
Answer: 8.4 nM

Question: And the inhibition at 0.04 µg/mL [4]?
Answer: 100%

Question: And the inhibition at 0.04 µg/mL [5]?
Answer: 69%

Question: With `Cc1ccc(-n2nc(C(C)(C)C)cc2NC(=O)Nc2ccc(Oc3ccnc(Nc4ccc(Cl)cc4)n3)c3ccccc23)cc1` [Example 16, 1-(3-(tert-butyl)-1-(p-tolyl)-1H-pyrazol-5-yl)-3-(4-((2-((4-chlorophenyl)amino)pyrimidin-4-yl)oxy)naphthalen-1-yl)urea] as the compound, how does the IC50 [1] read?
Answer: 4.1 nM

Question: And the EC50 [2]?
Answer: 1.1 nM

Question: What about the IC50 [3] of the same compound?
Answer: 0.31 nM

Question: And the IC50 [7]?
Answer: 36 nM

Question: What about the inhibition at 0.04 µg/mL [4] of the same compound?
Answer: 100%

Question: What about the inhibition at 0.04 µg/mL [5] of the same compound?
Answer: 10%

Question: Which results are given for `Cc1ccc(-n2nc(C(C)(C)C)cc2NC(=O)Nc2ccc(Oc3ccnc(Nc4ccc(O)cc4C)n3)c3ccccc23)cc1` [Example 24, 1-(3-(tert-butyl)-1-(p-tolyl)-1H-pyrazol-5-yl)-3-(4-((2-((4-hydroxy-2-methylphenyl)amino)pyrimidin-4-yl)oxy)naphthalen-1-yl)urea]?
Answer: IC50 [1]: 0.8 nM; EC50 [2]: 2.3 nM; IC50 [3]: 86 nM; IC50 [7]: 5 nM; inhibition at 0.04 µg/mL [4]: 100%; inhibition at 0.04 µg/mL [5]: 41%

Question: With `Cc1ccc(-n2nc(C(C)(C)C)cc2NC(=O)Nc2ccc(Oc3ccnc(Nc4ccc(O)cc4)n3)c3ccccc23)cc1` [Example 9, 1-(3-(tert-butyl)-1-(p-tolyl)-1H-pyrazol-5-yl)-3-(4-((2-((4-hydroxyphenyl)amino)pyrimidin-4-yl)oxy)naphthalen-1-yl)urea] as the compound, how does the IC50 [1] read?
Answer: 1.3 nM

Question: And the EC50 [2]?
Answer: 1.7 nM

Question: What about the IC50 [3] of the same compound?
Answer: 2.2 nM

Question: And the IC50 [7]?
Answer: 3 nM

Question: And the inhibition at 0.04 µg/mL [4]?
Answer: 100%

Question: What about the inhibition at 0.04 µg/mL [5] of the same compound?
Answer: 100%

Question: What about the inhibition at 5 µg/mL [6] of the same compound?
Answer: 50.3%

Question: With `COc1ccccc1Nc1nccc(Oc2ccc(NC(=O)Nc3cc(C(C)(C)C)nn3-c3ccc(C)cc3)c3ccccc23)n1` [Example 5, 1-(3-(tert-butyl)-1-(p-tolyl)-1H-pyrazol-5-yl)-3-(4-((2-((2-methoxyphenyl)amino)pyrimidin-4-yl)oxy)naphthalen-1-yl)urea] as the compound, how does the IC50 [1] read?
Answer: 66 nM

Question: And the EC50 [2]?
Answer: 2.9 nM

Question: And the IC50 [3]?
Answer: 6.2 nM

Question: And the IC50 [7]?
Answer: 17 nM

Question: And the inhibition at 0.04 µg/mL [4]?
Answer: 49%

Question: And the inhibition at 0.04 µg/mL [5]?
Answer: 91%
